Experiments:
CSM14.1 neuronal cells = assay: Rescue of CSM14.1 neurons from thapsigargin-induced cell death (ATPlite); assay type: cell-based; conditions: Rattus norvegicus, Neuron; 15 μM thapsigargin, 20 h; 10 μM compound, 2 h preincubation; cellular ATP content; read-out: % CSM14.1 Cell Viability after treatment with 15 μM TG in Presence of 10 μM compound
Source text: Ability of Compounds to Rescue CSM14.1 Neurons from Thapsigargin-Induced Cell Death.
To assess the ability of the compounds to rescue neurons from ER stress-induced cell death, the rat striatal neuroprogenitor cell line CSM14.1 was used. Endoplasmic reticulum (ER) stress has been established as the major cause of neuronal loss in stroke, ischemia, and neurodegeneration (Tajiri, S.; Oyadomari, S.; Yano, S.; Morioka, M.; Gotoh, T.; Hamada, J. I.; Ushio, Y.; Mori, M. Cell Death Differ. 2004, 11, 403-415; Kohno, K.; Higuchi, T.; Ohta, S.; Kumon, Y.; Sakaki, S. Neurosci. Lett. 1997, 224, 17-20; ladecola, C.; Zhang, F.; Casey, R.; Nagayama, M.; Ross, M. E. J. Neurosci. 1997, 17, 9157-9164). Thus, we used the known ER stress-causing agent thapsigargin (TG) to model the compromised state in vitro. TG causes 100% cell death in most cases, and compounds were assessed for neuroprotection by measuring cell viability when dosed at 10 μM. CSM14.1 cells were recovered from cultures by trypsinization and plated in 96-well plates and incubated overnight at 32° C. 5 μl of test compound was added to achieve a final concentration of […]. Salubrinal and DMSO without compound were used as positive and negative controls, respectively. After 2 h of preincubation, TG-containing DMEM was added to give a final concentration of 15 μM and incubated for an additional 20 h. Cell viability was assessed by a cellular ATP content assay (ATPlite, PerkinElmer Life Sciences).

[1] = test system: SUMOylation of His-RanGap (SUMO-E1 (SAE), SUMO-E2 (UBC9), GST-SUMO); assay: HTRF assay measuring increase in SUMOylation of His-RanGap; assay type: biochemical; conditions: His-RanGap substrate; HTRF 665/620 ratio; 30 min at room temperature; triplicate
Protocol: Assay Measuring Increase in SUMOylation of his-RanGap.
We utilized an HTRF assay containing SUMO-E1 (SAE), SUMO-E2 (UBC9), GST-SUMO and His-RanGap, a known SUMO substrate, as well as the respective fluorescent antibodies. The assay was run in 1536-well plate format and the selected activators were chosen based on their ability to increase the FRET signal over a baseline level. In 1536-well white plates, 2 μl of phosphate buffered saline (assay buffer) was dispensed into columns 1 and 2, and 2 μl of Mixture 1 (37.5 nM E1 and 100 nM His-RanGap-1) in assay buffer (50 mM Tris-HCl pH 7.4, 0.3 mM DTT, 10 mM MgCl2, 0.005% Tween-20), was dispensed into columns 3-48. Using a pintool, 70 nl of 2 mM compounds in DMSO was dispensed to columns 5-48 and 70 nl of DMSO was dispensed to columns 1-4. Using the Thermo Scientific MultiDrop Combi, 2 μL of Mixture 2 (20 mM ATP, 12.5 nM E2 and 30 nM GST-SUMO in buffer) was dispensed to all wells and incubated for 30 min. at room temperature followed by 1 μl of 500 mM KF. Plates were read on a PheraStar in a HTRF mode (Ex: 337 nm; Em: 620/665 nm). The ratio of fluorescence 665 over 620 was utilized as a readout of the assay. Increase in SUMOylation was calculated by comparison to baseline level. Measurements were done in triplicate.

| Compound | viability at 10 µM (CSM14.1 neuronal cells) | % INCREASE IN SUMOylation over endogenous baseline level [1] |
| --- | --- | --- |
| Cc1cc(C)c2nc(NNC(=O)c3cc(=O)c4ccccc4o3)sc2c1 [Compound B2, N′-(4,6-Dimethylbenzo[d]thiazol-2-yl)-4-oxo-4H-chromene-2-carbohydrazide] | 51 to 60% | C (C = 31%-40% increase) |
| Cc1ccc2sc(NNC(=O)c3cc(=O)c4ccccc4o3)nc2c1C [Compound B1, N′-(4,5-dimethylbenzo[d]thiazol-2-yl)-4-oxo-4H-chromene-2-carbohydrazide] | 40 to 50% | C (C = 31%-40% increase) |
| COc1cccc2sc(NNC(=O)C3COc4ccccc4O3)nc12 (stereo not drawn) [Compound B3, N′-(4-methoxybenzo[d]thiazol-2-yl)-2,3-dihydrobenzo[b][1,4]dioxine-2-carbohydrazide] | 51 to 60% | A (A = 10%-20% increase) |
